Source: PubChem BioAssay (NCI)
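These data come from cells grown in 96-well plates and exposed to compound for 48 hours at five concentrations. TGI marks complete inhibition of growth.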

Tests used:
Test in all cases: inhibition of tumour cell growth, NCI panel, 48 h
[1] = system: 786-0 renal
[2] = system: A549 NSCLC
[3] = system: ACHN renal
[4] = system: HCC-2998 colon
[5] = system: HOP-62 NSCLC
[6] = system: HS 578T breast
[7] = system: HT29 colon
[8] = system: K-562 leukemia
[9] = system: M14 melanoma
[10] = system: MCF7 breast
[11] = system: MDA-MB-231 breast
[12] = system: MDA-N
[13] = system: MOLT-4 leukemia
[14] = system: NCI-H226 lung
[15] = system: NCI/ADR-RES ovarian
[16] = system: OVCAR-5 ovarian
[17] = system: OVCAR-8 ovarian
[18] = system: SF-268 CNS
[19] = system: TK-10 renal
[20] = system: UACC-62 melanoma

| SMILES | TGI [1] [µM] | TGI [2] [µM] | TGI [3] [µM] | TGI [4] [µM] | TGI [5] [µM] | TGI [6] [µM] | TGI [7] [µM] | TGI [8] [µM] | TGI [9] [µM] | TGI [10] [µM] | TGI [11] [µM] | TGI [12] [µM] | TGI [13] [µM] | TGI [14] [µM] | TGI [15] [µM] | TGI [16] [µM] | TGI [17] [µM] | TGI [18] [µM] | TGI [19] [µM] | TGI [20] [µM] |
| --- | --- | --- | --- | --- | --- | --- | --- | --- | --- | --- | --- | --- | --- | --- | --- | --- | --- | --- | --- | --- |
| O=C(Cc1ccccc1)NN1C(=O)/C(=C\c2cccc([N+](=O)[O-])c2)SC1=Nc1ccccc1 | > 100 | > 100 | > 100 | > 100 | > 100 | > 100 | > 100 | > 100 | > 100 | > 100 | > 100 | > 100 | > 100 | > 100 | > 100 | > 100 | > 100 | > 100 | > 100 | > 100 |
| COc1ccccc1C(=O)NO | > 100 | > 100 | > 100 | > 100 | > 100 | > 100 | > 100 | > 100 | > 100 | > 100 | > 100 | > 100 | > 100 | > 100 | > 100 | > 100 | > 100 | > 100 | > 100 | > 100 |
| O=[N+]([O-])c1ccc(N/N=C2/CC3=C2CCCCCCCCCC3)c([N+](=O)[O-])c1 | > 100 | > 100 | > 100 | > 100 | > 100 | > 100 | > 100 | > 100 | > 100 | > 100 | > 100 | > 100 | > 100 | > 100 | > 100 | > 100 | > 100 | > 100 | > 100 | > 100 |
| O=C(O)c1ccccc1CC1Cc2cc3c(cc2C1)CCC3 | > 100 | > 100 | > 100 | > 100 | > 100 | > 100 | > 100 | > 100 | > 100 | > 100 | > 100 | > 100 | > 100 | > 100 | > 100 | > 100 | > 100 | > 100 | > 100 | > 100 |
| O=C1/C(=C/c2ccc(O)cc2)CCc2ccc([N+](=O)[O-])cc21 | > 100 | > 100 | > 100 | > 100 | > 100 | > 79.8 | > 100 | > 100 | > 100 | > 100 | > 100 | > 100 | > 100 | > 92.7 | > 100 | > 100 | > 100 | > 100 | > 100 | > 100 |
| O=C(NNC1=NCCCN1)c1ccco1 | > 100 | > 100 | > 100 | > 100 | > 100 | > 100 | > 100 | > 100 | > 100 | > 100 | > 100 | > 100 | > 100 | > 100 | > 100 | > 100 | > 100 | > 100 | > 100 | > 100 |
| COc1ccc2c(c1)-c1c(c3cc(OC)ccc3n1CCCN(C)C)CC2 | > 100 | 50.6 | 35.9 | 10.2 | 29.2 | 20.5 | 13.9 | 13.2 | 4.8 | 26.5 | 30.5 | 16 | 30.9 | 6.82 | 31.4 | 28.4 | 30.7 | 26.2 | 39.7 | 20.6 |
| CC(=O)Nc1ccc(C(=O)NN2C(=O)CSC2c2ccc(O)cc2)cc1 (centres undefined) | > 100 | > 100 | > 100 | > 100 | > 100 | > 100 | > 100 | > 100 | > 100 | > 100 | > 100 | > 100 | > 100 | > 100 | > 100 | > 100 | > 100 | > 100 | > 100 | > 100 |
| O=C1OC(C2Cc3ccc4c(c3C2=O)CCC4)c2ccccc21 (centres undefined) | > 100 | > 100 | > 100 | > 100 | > 100 | > 100 | > 100 | > 100 | > 100 | > 100 | > 100 | > 100 | > 100 | 83.6 | > 100 | > 100 | > 100 | > 100 | > 100 | > 100 |
| COc1ccc2c(C)c(Oc3c(Cl)c(Cl)c(O)c(C#N)c3C#N)oc2c1 | > 100 | > 100 | > 100 | > 100 | > 100 | > 100 | > 100 | > 100 | > 100 | > 100 | > 100 | > 100 | > 100 | > 100 | > 100 | > 100 | > 100 | > 100 | > 100 | > 100 |
| O=C(NCCCNCCN1C(=O)c2cccc3cc([N+](=O)[O-])cc(c23)C1=O)c1cc(-c2ccccc2)nc2ccccc12 | 9.04 | 15.7 | 14.5 | 3.05 | 20.5 | 12.5 | 2.84 | 2.5 | 3.3 | 6.51 | 8.17 | 2.89 | 6.01 | 24.2 | 17.3 | 18.6 | 17 | 15.9 | 21.8 | 17.4 |
| CCOC(=O)C(NC(C)=O)(Nc1ccc(S(N)(=O)=O)cc1)C(F)(F)F (centres undefined) | > 100 | > 100 | > 100 | > 100 | > 100 | > 100 | > 100 | > 100 | > 100 | > 100 | > 100 | > 100 | > 100 | > 100 | > 100 | > 100 | > 100 | > 100 | > 100 |  |
